Laboratory results reported in publication PMC6015065, “Linear Cyclodextrin Polymer Prodrugs as Novel Therapeutics for Niemann-Pick Type C1 Disorder” (Scientific Reports, 2018).
Read-outs that look alike come from different tables or passages of the source.

Experiments:
[1] = Pharmacokinetics after single subcutaneous dose (500 mg/kg); assay type: in vivo, BALB/c mice; conditions: BALB/c, mouse, plasma
Method: (§1) LC/MS/MS (HPβCD) and HPLC-UV (ORX-301) were used for analysis in the studies. The bioanalytical method for HPβCD was linear, accurate, and precise in the concentration range of 5.4 and 500 µg/ml, with an LLOQ = 5.4 µg/ml, and met all the acceptance criteria.
(§2) Pharmacokinetic analysis and MTD studies were carried out in BALB/c mice purchased from Taconic Biosciences. Protocols and procedures of these studies were approved by the Institutional Animal Ethics Committee based on CPCSEA (India) guidelines.
(§3) Plasma was harvested and stored at −80 °C.

Npc1^nih/nih mice = conditions: cited from earlier work
in vivo = conditions: BALB/c, mouse, sc, 500 mg/kg; for AUC(0-t): AUClast; for Kp: Tissue/Plasma Ratio
Method: The vehicle used for dissolution of test compounds was 0.9% Normal Saline. […] The formulations were prepared on the day of the study. The test compounds were administered at 100 mg/kg for the IV study and 500 mg/kg for the SC study. For the tissue distribution study, again 500 mg/kg was administered by the SC route.
Post dose, blood, or the relevant tissue in the case of the distribution study was collected at time points of 2 min, 5 min, 15 min, 30 min, 1 h, 2 h, 4 h, 24 h, 36 h and 48 h. From each mouse terminal blood samples were collected by cardiac puncture under isoflurane anaesthesia. The blood was collected in 2 ml Eppendorf tubes containing 0.020 ml of 10% K2EDTA, mixed gently and placed in ice before centrifugation. Plasma was harvested and stored at −80 °C. […] The PK analysis was performed using Non-compartmental methods in Phoenix WinNonlin 6.4 [Pharsight, Certara]. The mean concentration-time data were used for computing the PK parameters. The AUC was computed using the linear up-log down method. The following NCA parameters were estimated for the IV PK: Systemic Clearance [CL], Vss [Volume of distribution at steady state], first order elimination rate constant [ke], terminal half-life [t1/2], AUC0-t, AUC0-∞. For the SC PK study: Cmax, tmax, ke, t1/2, AUC0-t, AUC0-∞ and the absolute SC bioavailability [F] was estimated using the equation: F(%)=(AUCsc/AUCiv)∗(Doseiv/Dosesc)∗100

Npc1^nmf164 mice [2] = system: Npc1^nmf164 mice; design: method as in PMID 26888431; conditions: HPβCD full dose 4000 mg/kg; cited from earlier work
[3] = cited from earlier work
Npc1^nmf164 mice [4] = experiment: Early intervention efficacy study (treatment from 2 weeks of age); assay type: in vivo; conditions: for Mean bodyweight: Npc1^nmf164 mice, 800 mg/kg SC weekly
Method: Control group mice received plain PBS (sham, group).
The body weight was recorded weekly and a score ranging from 0 to 5 was assigned to each mouse (Table 3) as previously performed. The motor co-ordination phenotype was assessed by the balance beam test every two weeks as previously described. Briefly, the mouse was placed perpendicularly at the center of a horizontal round beam (covered with paper tape, outer diameter 2 cm, length 1 m, divided into 10 sections and placed 50 cm above a padded surface) and the number of beam sections crossed in a 180 s time interval was recorded. Although the test relies on muscle strength and limb tone, it is well validated for the assessment of fine motor coordination and balance. […] The end-point of data collection was established as mouse weight approaching 13 g[40].

[5] = Pharmacokinetics after single intravenous dose (100 mg/kg); assay type: in vivo, BALB/c mice; conditions: BALB/c, mouse
Method: as §1, §2, §3

[6] = system: Calbindin in Purkinje cells of Npc1^nmf164 mice; experiment: Calbindin detection by immunofluorescence on cerebellar sections; assay type: in vivo; conditions: 10 weeks-old Npc1^nmf164 mice, 800 mg/kg SC weekly from 2 weeks
Method: Sham-treated control mice were injected with plain PBS.
Brains were quickly dissected, fixed overnight at 4 °C in 4% PFA and processed as previously described[52]. Briefly, fixed brains were dehydrated by incubation in 15–30% sucrose in PBS, embedded in FSC 22 Clear Frozen Section Compound (Leica Biosystems, Milano, Italy) and serially sectioned (slice thickness 10 µm) using a cryostat (Leica CM 1900). Sagittal sections were mounted on X-tra Adhesive glass slides (Leica biosystems). Sections were processed for immunofluorescence using a mouse monoclonal Calbindin antibody (Anti-Calbindin D28K, Sigma, Milan, Italy; 1:500 dilution in PBS) as routinely performed in our lab. A permeabilization step performed by incubating sections in 0.1% Triton X-100 in PBS for 10 min was followed by a 3 h incubation in a blocking solution containing 5% goat serum, 1% BSA, 0.2% Triton X-100 in PBS. Sections were then incubated over night with a 1:500 primary antibody dilution in PBS and, after several washes with PBS, with a TRITC-conjugated anti-mouse secondary antibody (Zymed-Thermo Fisher Scientific, Milan, Italy).

[7] = 800 mg/kg SC weekly from 2 weeks of age

For `CC(O)COC[C@H]1O[C@@H]2O[C@H]3[C@H](O)[C@@H](O)[C@@H](O[C@H]4[C@H](O)[C@@H](O)[C@@H](O[C@H]5[C@H](O)[C@@H](O)[C@@H](O[C@H]6[C@H](O)[C@@H](O)[C@@H](O[C@H]7[C@H](O)[C@@H](O)[C@@H](O[C@H]8[C@H](O)[C@@H](O)[C@@H](O[C@H]1[C@H](O)[C@H]2O)O[C@@H]8COCC(C)O)O[C@@H]7COCC(C)O)O[C@@H]6COCC(C)O)O[C@@H]5COCC(C)O)O[C@@H]4COCC(C)O)O[C@@H]3COCC(C)O` (stereo partly drawn) [HPβCD, 2-hydroxypropyl-β-cyclodextrin], the bioavailability ([1]; subcutaneous 500 mg/kg vs intravenous 100 mg/kg, read-out: Absolute Bioavailability) was 42%, the AUC(0-inf) ([1]; sc, subcutaneous 500 mg/kg) was 4140 µg·h/mL and the AUC(0-t) ([1]; sc, subcutaneous 500 mg/kg) was 4020 µg·h/mL. For the same compound, the Cmax ([1]; sc, subcutaneous 500 mg/kg) was 4610 µg/mL, the Tmax ([1]; sc, subcutaneous 500 mg/kg) was 4.98 min and the half-life ([1]; sc, subcutaneous 500 mg/kg) was 16.7 h. The effect on lifespan (Npc1^nih/nih mice; single injection at day 49, Npc1^nih/nih mice) was “did not significantly improve the lifespan”, the “dosage required for improvement of survival” value (Npc1^nih/nih mice; weekly injections started at day 42, Npc1^nih/nih mice) was “at least 1000 mg/kg” and the AUC(0-t) (in vivo; kidney) was 2950 µg·h/mL. It also gave an AUC(0-t) (in vivo; liver) of 127 µg·h/mL, an AUC(0-t) (in vivo; spleen) of 828 µg·h/mL and a Kp (in vivo; kidney) of 0.63. The Kp (in vivo; liver) was 0.03, the Kp (in vivo; spleen) was 0.18 and the mean lifespan (Npc1^nmf164 mice [2]) was 170 to 180 days. For the same compound, the “fraction that reaches the brain upon systemic administration” value ([3]; ref 25, 53) was 0.2–1.5%, the “fraction that reaches the brain upon systemic administration” value ([3]; ref 25) was “less than 0.2%” and the “body weight loss progression” value (Npc1^nmf164 mice [4]; [7]) was “less severe and slower progressing weight loss”. For the same compound, the “improvement of performance in the balance beam test” value (Npc1^nmf164 mice [4]; [7]) was “only temporarily observed up to 9-weeks of age”, the mean lifespan (Npc1^nmf164 mice [4]; [7]) was 150 ± 2.55 days and the “improvement in mean survival” value (Npc1^nmf164 mice [4]; 800 mg/kg SC weekly from 2 weeks of age, vs sham-treated) was 35%. It also gave a Mean bodyweight (Npc1^nmf164 mice [4]; post-natal week 2) of 7.43 ± 0.30 g, a Mean bodyweight (Npc1^nmf164 mice [4]; post-natal week 3) of 10.37 ± 0.33 g and a Mean bodyweight (Npc1^nmf164 mice [4]; post-natal week 4) of 13.31 ± 0.53 g. It also gave a Mean bodyweight (Npc1^nmf164 mice [4]; post-natal week 5) of 17.24 ± 0.65 g, a Mean bodyweight (Npc1^nmf164 mice [4]; post-natal week 6) of 18.58 ± 0.75 g and a Mean bodyweight (Npc1^nmf164 mice [4]; post-natal week 7) of 20.25 ± 0.84 g. It also gave a Mean bodyweight (Npc1^nmf164 mice [4]; post-natal week 8) of 20.85 ± 0.94 g, a Mean bodyweight (Npc1^nmf164 mice [4]; post-natal week 9) of 20.55 ± 1.03 g and a Mean bodyweight (Npc1^nmf164 mice [4]; post-natal week 10) of 19.92 ± 0.81 g. The concentration at 24 h ([5]; in vivo, iv, 100 mg/kg) was 4.95 µg/mL, the tlast ([5]; in vivo, iv, 100 mg/kg) was 24 h and the bioavailability ([5]; plasma, 500 mg/kg, printed under the Intravenous columns, read-out: Absolute Bioavailability) was 42%. It also gave a half-life ([5]; plasma, iv, 100 mg/kg, intravenous 100 mg/kg) of about 14 h, a clearance ([5]; plasma, single IV dose 100 mg/kg) of 0.85 mL/min/kg and a Vd ([5]; plasma, single IV dose 100 mg/kg, read-out: Vss) of 0.18 L/kg. The AUC(0-inf) ([5]; intravenous 100 mg/kg, plasma) was 1960 µg·h/mL, the AUC(0-t) ([5]; intravenous 100 mg/kg, plasma) was 1860 µg·h/mL and the Tmax ([5]; intravenous 100 mg/kg, plasma) was 4.98 min. The “Calbindin staining of Purkinje cells” value [6] was “markedly reduced Calbindin staining”.
